Measurements: the PolyMetriX glass transition set
± gives the standard deviation of the reports.

SMILES | glass transition temperature [°C]
*CC(*)(C)C(=O)OCCCCCCCCCCCCCCC(=O)NC1OC(COC(C)=O)C(OC2OC(COC(C)=O)C(OC(C)=O)C(OC(C)=O)C2OC(C)=O)C(OC(C)=O)C1OC(C)=O (repeat unit) | 95.20
*CC(COc1ccc(S(=O)(=O)c2ccc(O*)cc2)cc1)OC(C)=O (repeat unit) | 130.00
*c1ccc(-c2cc(C(C)(C)C)c(Oc3ccc(N4C(=O)c5ccc(Oc6ccc7c(c6)C(=O)N(*)C7=O)cc5C4=O)cc3)c(C(C)(C)C)c2)cc1 (repeat unit) | 342.00
*OC(=O)/C=C/C(=O)OC1COC2C(*)COC12 (repeat unit) | 60.00
*c1cccc(N2C(=O)c3ccc(Oc4c(C)cc(-c5cc(C)c(Oc6ccc7c(c6)C(=O)N(*)C7=O)c(C)c5)cc4C)cc3C2=O)c1 (repeat unit) | 295.00
*CC(CS(=O)(=O)CCCCC)O* (repeat unit) | 39.00
*c1ccc(Oc2ccc(-c3cccc(-c4ccc(Oc5ccc(-c6c7c(c(*)c8ccccc68)C(=O)N(c6ccccc6)C7=O)cc5)c(C(F)(F)F)c4)n3)cc2C(F)(F)F)cc1 (repeat unit) | 298.00
*c1nc(-c2ccccc2)nc(N(c2ccccc2)c2ncnc(N(*)c3ccccc3)n2)n1 (repeat unit) | 279.00
*CC(*)(C)C(=O)OCc1ccc2c(c1)c1ccccc1n2CCCCCCCC (repeat unit) | 45.00
*CCOCCOCCOCCOCCOC(=O)CCSCCC(=O)O* (repeat unit) | -39.00
*CCCP(C)(=O)CCCNC(=O)CCCCC(=O)N* (repeat unit) | 33.00
*Oc1ccc(-c2ccc(-c3ccc(Oc4ccc(C(C)(C)c5ccc(*)cc5)cc4)cc3)cc2)cc1 (repeat unit) | 182.00
*CCN(*)C(=O)c1ccc(F)c(F)c1 (repeat unit) | 101.00
*c1ccc(Oc2ccc(S(=O)(=O)c3ccc(C)cc3)cc2)c(N2C(=O)c3ccc(-c4ccc5c(c4)C(=O)N(*)C5=O)cc3C2=O)c1 (repeat unit) | 281.00
*CCCCCCCCCCNC(=O)CCCCCCCCC(=O)N* (repeat unit) | 60.00
*Oc1ccc(C(=O)c2ccc(C(=O)c3ccc(Oc4ccc(Cc5ccc(*)cc5)cc4)cc3)cc2)cc1 (repeat unit) | 120.00
*CC(OCC)C1(C)C(=O)OC(=O)C1(*)C (repeat unit) | 244.00
*Oc1ccc(CC(NC(=O)CCc2ccc(OC(*)=O)cc2)C(=O)OCCCC)cc1 (repeat unit) | 67.00
*CCCCCCCCCNC(=O)c1ccc(C(=O)N*)cc1 (repeat unit) | 115.00
*CCNC(=O)c1cccc(O*)c1 (repeat unit) | 106.00
*/C=C/c1ccc(*)c(-c2ccc(OCC(CC)CCCC)c3ccccc23)c1 (repeat unit) | 135.00
*Oc1ccc(C2(c3ccc(OC(=O)CCC(*)=O)cc3)c3ccccc3-c3ccccc32)cc1 (repeat unit) | 234.00
*c1ccc(Oc2ccc(Oc3ccc(N4C(=O)c5ccc(-c6ccc7c(c6)C(=O)N(*)C7=O)cc5C4=O)cc3)c(C)c2)cc1 (repeat unit) | 265.00

SMILES | glass transition temperature [°C]
*CC(*)C(=O)OCCOc1ccc(C(=O)Oc2ccc(OC(=O)c3ccc(OCCCC)cc3)cc2)cc1 (repeat unit) | 45.00
*CC(OC=O)C(COC(=O)O*)OC=O (repeat unit) | 54.30
*c1ccc(Oc2ccc(P(=O)(c3ccccc3)c3ccc(Oc4ccc(-c5ccc(*)nc5)cc4)cc3)cc2)cc1 (repeat unit) | 257.00
*CC(*)(C)C(=O)OC1(C)CCCN(c2ccc(/N=N/c3ccc(/C=C(\C#N)S(C)(=O)=O)cc3)cc2)C1 (repeat unit) | 196.00
*CCO* (repeat unit) [Poly(ethylene glycol)] | -15.6 ± 42
*CC(*)c1ccc(OC)cc1 (repeat unit) [Poly(p-methoxy styrene) ] | 89 ± 12
*CC(*)(C)C(=O)Oc1cccc(C)c1C (repeat unit) | 120.00
*Nc1ccc(NC(=O)c2cc(C(=O)c3ccc(C(=O)O)c(C(*)=O)c3)ccc2C(=O)O)cc1 (repeat unit) | 213.20
*CCCC(=O)Nc1ccc(Oc2ccc(NC(=O)CCCN3C(=O)c4ccc(C(=O)c5ccc6c(c5)C(=O)N(*)C6=O)cc4C3=O)cc2)cc1 (repeat unit) | 198.00
*Nc1cc(NC(=O)NC2CCC(CC3CCC(NC(*)=O)CC3)CC2)cc(C(=O)Nc2ccc3c(c2)C(=O)c2ccccc2C3=O)c1 (repeat unit) | 148.00
*c1ccc(-c2ccc(N3C(=O)c4ccc(-c5cccc6c5C(=O)N(*)C6=O)cc4C3=O)cc2C)c(C)c1 (repeat unit) | 372.00
*CC(*)c1ccc(-c2cccc3nsnc23)cc1 (repeat unit) | 150.00
*c1ccc(OCCOc2cccc(N3C(=O)c4ccc(Oc5ccc6c(c5)C(=O)N(*)C6=O)cc4C3=O)c2)cc1 (repeat unit) | 178.50
*Oc1ccc(P(=O)(c2ccccc2)c2ccc(Oc3ccc(C(C)(C)c4ccc(*)cc4)cc3)cc2)cc1 (repeat unit) | 199.00
*CC(*)C(=O)N1CCOCC1 (repeat unit) | 150.00
*C(=O)c1ccc2nc(-c3ccccc3)c(-c3ccc(-c4nc5cc(*)ccc5nc4-c4ccccc4)cc3)nc2c1 (repeat unit) | 325.00
*Oc1ccc(S(=O)(=O)c2ccc(Oc3c(C)cc(C(C)(C)c4cc(C)c(*)c(C)c4)cc3C)cc2C(O)(C(F)(F)F)C(F)(F)F)c(C(O)(C(F)(F)F)C(F)(F)F)c1 (repeat unit) | 187.00
*CC(*)c1ccc(COCC(F)(F)C(F)(F)C(F)(F)C(F)(F)F)cc1 (repeat unit) | 23.00
*C(=O)Nc1ccc(Cc2ccc(NC(=O)c3ccc4c(c3)C(=O)N(c3cccc(P(=O)(c5ccccc5)c5cccc(N6C(=O)c7ccc(*)cc7C6=O)c5)c3)C4=O)cc2)cc1 (repeat unit) | 233.00
*CCN(CCN1C(=O)c2ccc(C(c3ccc4c(c3)C(=O)N(*)C4=O)(C(F)(F)F)C(F)(F)F)cc2C1=O)c1ccc(/C=C/C2=CC(=C(C#N)C#N)CC(C)(C)C2)cc1 (repeat unit) | 224.00
*Cc1cccc(CNC(=O)c2ccccc2-c2ccccc2C(=O)N*)c1 (repeat unit) | 159.00
*Oc1ccc(Oc2ccc(Oc3cccc(C(=O)Oc4ccc(-c5ccc(OC(=O)c6cccc(*)c6)cc5)cc4)c3)cc2)cc1 (repeat unit) | 119.00
*CCCC(C)CNC(=O)c1ccc(C(=O)N*)cc1 (repeat unit) | 153.00

SMILES | glass transition temperature [°C]
*C(=O)Nc1ccc(S(=O)(=O)c2ccc(NC(=O)c3ccc4c(c3)C(=O)N(c3ccc(-c5sc(-c6ccc(N7C(=O)c8ccc(*)cc8C7=O)cc6)c(-c6ccccc6)c5-c5ccccc5)cc3)C4=O)cc2)cc1 (repeat unit) | 340.00
*c1cccc(N2C(=O)c3ccc(C(c4ccc5c(c4)C(=O)N(c4cccc(N6C(=O)c7ccc(-c8ccc9c(c8)C(=O)N(*)C9=O)cc7C6=O)c4)C5=O)(C(F)(F)F)C(F)(F)F)cc3C2=O)c1 (repeat unit) | 308.00
*O[Si](C)(C)c1ccc([Si](*)(C)C)c2ccccc12 (repeat unit) | 60.00
*CC(O)COc1ccc(S(=O)(=O)c2ccc(O*)c(C)c2)cc1C (repeat unit) | 132.50
*CC(*)c1ccc(C(=O)CCCC)cc1 (repeat unit) | 70.00
*OC1CCCCC1OC(*)=O (repeat unit) | 117.30
*CCCOC(=O)CCCC(=O)O* (repeat unit) | -33.00
*CCCCCCN1C(=O)c2ccc(C(=O)c3ccc4c(c3)C(=O)N(*)C4=O)cc2C1=O (repeat unit) | 127.00
*c1cc(C)c(-c2c(C)cc(-n3c(=O)c4cc5c(=O)n(*)c(=O)c5cc4c3=O)cc2C)c(C)c1 (repeat unit) | 353.00
*C(=O)Nc1c(C)cc(C)c(NC(=O)c2ccc3c(c2)C(=O)N(c2c(C)cc(C)c(N4C(=O)c5ccc(*)cc5C4=O)c2C)C3=O)c1C (repeat unit) | 288.00
*CCCC(*)(C)C(=O)O (repeat unit) | 132.00
*Cc1ccc(CNC(=O)CCCCCCCCC(=O)N*)cc1 (repeat unit) | 115.00
*Oc1ccc(C(C)(C)c2ccc(C(C)(C)c3ccc(OC(*)=O)cc3)cc2)cc1 (repeat unit) | 154.00
*Oc1cccc(Oc2ccc(S(=O)(=O)c3ccc(*)cc3)cc2)c1 (repeat unit) | 177.00
*Nc1cccc(NC(=O)c2cc(NC(=O)c3ccccc3)cc(C(*)=O)c2)c1 (repeat unit) | 300.00
*NNC(=O)/C=C/C(=O)NCCCCCCNC(=O)/C=C/C(*)=O (repeat unit) | 102.40
*c1nc(C(F)(F)C(F)(F)C(F)(F)F)nc(C(F)(F)C(F)(F)C(F)(F)C(F)(F)C(F)(F)C(*)(F)F)n1 (repeat unit) | -5.00
*CCNC(=O)c1ccc([Si](c2ccccc2)(c2ccccc2)c2ccc(C(=O)NCCN(*)c3ccc(/C=C/c4ccc([N+](=O)[O-])cc4)cc3)cc2)cc1 (repeat unit) | 165.00
*C(=O)c1ccc2c(c1)C(=O)N(c1ccccc1Cc1ccccc1N1C(=O)c3ccc(*)cc3C1=O)C2=O (repeat unit) | 285.00
*CCCCCCNC(=O)CCC(C)(C)c1ccc(C(C)(C)CCC(=O)N*)cc1 (repeat unit) | 93.2
*c1ccc(-c2cc(CCCCCCCC)c(-c3ccc(-c4ccc(-c5sc(-c6ccc([Si](C)(C)[Si](C)(C)[Si](C)(C)[Si](*)(C)C)s6)cc5CCCCCCCC)s4)s3)s2)s1 (repeat unit) | 6.00
